# Measured values reported in PubChem BioAssay (NCI).
#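 Cultured in 96-well plates, cells were exposed to test compound for 48 hours across five concentrations. GI50 = concentration required for 50% inhibition of growth. TGI is the concentration that stops growth completely.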
# How the values were obtained:
# Experiment in all cases: NCI tumour cell line growth inhibition, 48 h
# DLD-1 colon = system: DLD-1 colon
# HOP-18 NSCLC = system: HOP-18 NSCLC
# M19-MEL melanoma = system: M19-MEL melanoma
# KM20L2 colon = system: KM20L2 colon
# A498 renal = system: A498 renal
# EKVX NSCLC = system: EKVX NSCLC
# SN12K1 renal = system: SN12K1 renal
# NCI/ADR-RES ovarian = system: NCI/ADR-RES ovarian
# P388/ADR leukemia = system: P388/ADR leukemia
# P388 leukemia = system: P388 leukemia
# HL-60(TB) leukemia = system: HL-60(TB) leukemia
# PC-3 prostate = system: PC-3 prostate
# MDA-MB-435 = system: MDA-MB-435
# SR leukemia = system: SR leukemia
# BT-549 breast = system: BT-549 breast
# LXFL 529 NSCLC = system: LXFL 529 NSCLC
Compound,TGI (DLD-1 colon) [µM],TGI (HOP-18 NSCLC) [µM],TGI (M19-MEL melanoma) [µM],TGI (KM20L2 colon) [µM],TGI (A498 renal) [µM],TGI (EKVX NSCLC) [µM],GI50 (SN12K1 renal) [µM],TGI (SN12K1 renal) [µM],GI50 (NCI/ADR-RES ovarian) [µM],TGI (NCI/ADR-RES ovarian) [µM],GI50 (P388/ADR leukemia) [µM],TGI (P388/ADR leukemia) [µM],GI50 (P388 leukemia) [µM],TGI (P388 leukemia) [µM],TGI (HL-60(TB) leukemia) [µM],TGI (PC-3 prostate) [µM],TGI (MDA-MB-435) [µM],TGI (SR leukemia) [µM],TGI (BT-549 breast) [µM],TGI (LXFL 529 NSCLC) [µM]
[Cl-].[Rh+3].c1ccc(-c2ccnc3c2ccc2c(-c4ccccc4)ccnc23)cc1.c1ccc(-c2ccnc3c2ccc2c(-c4ccccc4)ccnc23)cc1.c1ccc(-c2ccnc3c2ccc2c(-c4ccccc4)ccnc23)cc1,> 64.4,> 87.4,> 86.2,> 100,> 83.4,> 91.7,29.7,> 87.2,73.2,> 100,23.7,> 100,24.7,> 71,60.3,,,,,
C/C=C(/C)C(=O)O[C@@H]1c2c(C)coc2C[C@H]2CC[C@H](O)[C@H](C)[C@]21C,,,,,,> 100,,,,55.9,,,,,87,> 100,> 100,> 100,,
COC(=O)[C@@H]1c2cc3c(c(O)c2[C@@H](OC)C[C@@]1(C)O)C(=O)c1c(O)cc2c(c1C3=O)OC1O[C@@]2(C)[C@H](O)[C@@H](N(C)C)[C@@H]1O,8.83,1.34,0.88,0.794,0.764,1.33,,1.41,,4.22,,15,,2.36,,,,,,
O=C(O)Cc1ccc(N2N=C(c3ccccc3)CC2=O)cc1,,,,,> 100,> 100,,,,> 100,,,,,> 100,> 100,,> 100,> 100,
C=C(C)C1Cc2c(cc(O)c3c(=O)c4ccccc4n(C)c23)O1 (configuration not stated),> 100,> 100,,> 100,92.6,,,,,,,,,,> 100,,,> 100,,> 100
CC(C)(C)OC(=O)C1=C(C(=O)OC(C)(C)C)SC2(S1)C(C(=O)OC(C)(C)C)=C(C(=O)OC(C)(C)C)Sc1c2ssc1=O,,,,,> 100,> 100,,,,> 100,,,,,> 100,> 100,> 100,,> 100,
